Test results reported in PubChem BioAssay (NCI).
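Assay format: 96-well plates, 48-hour exposure. At the GI50, growth is halved. TGI is the concentration that stops growth completely.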

Assays:
Assay in all cases: NCI anticancer screen, dose series, 48 h
786-0 renal = tested on: 786-0 renal
A498 renal = tested on: A498 renal
A549 NSCLC = tested on: A549 NSCLC
ACHN renal = tested on: ACHN renal
BT-549 breast = tested on: BT-549 breast
CAKI-1 renal = tested on: CAKI-1 renal
CCRF-CEM leukemia = tested on: CCRF-CEM leukemia
COLO 205 colon = tested on: COLO 205 colon
DU-145 prostate = tested on: DU-145 prostate
HCC-2998 colon = tested on: HCC-2998 colon
HCT-116 colon = tested on: HCT-116 colon
HCT-15 colon = tested on: HCT-15 colon
HL-60(TB) leukemia = tested on: HL-60(TB) leukemia
HOP-62 NSCLC = tested on: HOP-62 NSCLC
HOP-92 NSCLC = tested on: HOP-92 NSCLC
HS 578T breast = tested on: HS 578T breast
HT29 colon = tested on: HT29 colon
IGROV1 ovarian = tested on: IGROV1 ovarian
K-562 leukemia = tested on: K-562 leukemia
KM12 colon = tested on: KM12 colon
LOX IMVI melanoma = tested on: LOX IMVI melanoma
M14 melanoma = tested on: M14 melanoma
MALME-3M melanoma = tested on: MALME-3M melanoma
MCF7 breast = tested on: MCF7 breast
MDA-MB-231 breast = tested on: MDA-MB-231 breast
MDA-MB-435 = tested on: MDA-MB-435
MOLT-4 leukemia = tested on: MOLT-4 leukemia
NCI-H226 lung = tested on: NCI-H226 lung
NCI-H23 lung = tested on: NCI-H23 lung
NCI-H460 lung = tested on: NCI-H460 lung
NCI-H522 lung = tested on: NCI-H522 lung
NCI/ADR-RES ovarian = tested on: NCI/ADR-RES ovarian
OVCAR-3 ovarian = tested on: OVCAR-3 ovarian
OVCAR-4 ovarian = tested on: OVCAR-4 ovarian
OVCAR-5 ovarian = tested on: OVCAR-5 ovarian
OVCAR-8 ovarian = tested on: OVCAR-8 ovarian
PC-3 prostate = tested on: PC-3 prostate
RPMI-8226 leukemia = tested on: RPMI-8226 leukemia
RXF 393 renal = tested on: RXF 393 renal
SF-268 CNS = tested on: SF-268 CNS
SF-295 CNS = tested on: SF-295 CNS
SF-539 CNS = tested on: SF-539 CNS
SK-MEL-2 melanoma = tested on: SK-MEL-2 melanoma
SK-MEL-28 melanoma = tested on: SK-MEL-28 melanoma
SK-MEL-5 melanoma = tested on: SK-MEL-5 melanoma
SK-OV-3 ovarian = tested on: SK-OV-3 ovarian
SN12C renal = tested on: SN12C renal
SNB-19 CNS = tested on: SNB-19 CNS
SNB-75 CNS = tested on: SNB-75 CNS
SR leukemia = tested on: SR leukemia
SW-620 colon = tested on: SW-620 colon
T-47D breast = tested on: T-47D breast
TK-10 renal = tested on: TK-10 renal
U251 CNS = tested on: U251 CNS
UACC-257 melanoma = tested on: UACC-257 melanoma
UACC-62 melanoma = tested on: UACC-62 melanoma
UO-31 renal = tested on: UO-31 renal

CCN(Cc1ccccn1)c1ccc(CO)c(Cl)c1
GI50 (786-0 renal): > 100 µM
TGI (786-0 renal): > 100 µM
GI50 (A498 renal): 0.125 µM
TGI (A498 renal): 0.266 µM
GI50 (A549 NSCLC): 16.6 µM
TGI (A549 NSCLC): > 100 µM
GI50 (ACHN renal): > 100 µM
TGI (ACHN renal): > 100 µM
GI50 (BT-549 breast): > 100 µM
TGI (BT-549 breast): > 100 µM
GI50 (CAKI-1 renal): 39 µM
TGI (CAKI-1 renal): > 100 µM
GI50 (CCRF-CEM leukemia): > 100 µM
TGI (CCRF-CEM leukemia): > 100 µM
GI50 (COLO 205 colon): 4.65 µM
TGI (COLO 205 colon): 16 µM
GI50 (DU-145 prostate): > 100 µM
TGI (DU-145 prostate): > 100 µM
GI50 (HCC-2998 colon): 18.1 µM
TGI (HCC-2998 colon): > 100 µM
GI50 (HCT-116 colon): 1.12 µM
TGI (HCT-116 colon): > 100 µM
GI50 (HCT-15 colon): > 100 µM
TGI (HCT-15 colon): > 100 µM
GI50 (HL-60(TB) leukemia): 46 µM
TGI (HL-60(TB) leukemia): > 100 µM
GI50 (HOP-62 NSCLC): 46.1 µM
TGI (HOP-62 NSCLC): > 100 µM
GI50 (HOP-92 NSCLC): 10 µM
TGI (HOP-92 NSCLC): > 96.6 µM
GI50 (HS 578T breast): > 100 µM
TGI (HS 578T breast): > 100 µM
GI50 (HT29 colon): > 69.8 µM
TGI (HT29 colon): > 100 µM
GI50 (IGROV1 ovarian): 0.68 µM
TGI (IGROV1 ovarian): 3.89 µM
GI50 (K-562 leukemia): 17.3 µM
TGI (K-562 leukemia): > 100 µM
GI50 (KM12 colon): > 100 µM
TGI (KM12 colon): > 100 µM
GI50 (LOX IMVI melanoma): > 100 µM
TGI (LOX IMVI melanoma): > 100 µM
GI50 (M14 melanoma): > 100 µM
TGI (M14 melanoma): > 100 µM
GI50 (MALME-3M melanoma): > 100 µM
TGI (MALME-3M melanoma): > 100 µM
GI50 (MCF7 breast): 2.78 µM
TGI (MCF7 breast): > 100 µM
GI50 (MDA-MB-231 breast): > 100 µM
TGI (MDA-MB-231 breast): > 100 µM
GI50 (MDA-MB-435): > 100 µM
TGI (MDA-MB-435): > 100 µM
GI50 (MOLT-4 leukemia): > 100 µM
TGI (MOLT-4 leukemia): > 100 µM
GI50 (NCI-H226 lung): 0.151 µM
TGI (NCI-H226 lung): 0.332 µM
GI50 (NCI-H23 lung): > 100 µM
TGI (NCI-H23 lung): > 100 µM
GI50 (NCI-H460 lung): 2.71 µM
TGI (NCI-H460 lung): 40.7 µM
GI50 (NCI-H522 lung): > 100 µM
TGI (NCI-H522 lung): > 100 µM
GI50 (NCI/ADR-RES ovarian): 52.2 µM
TGI (NCI/ADR-RES ovarian): > 100 µM
GI50 (OVCAR-3 ovarian): 3.75 µM
TGI (OVCAR-3 ovarian): 23.3 µM
GI50 (OVCAR-4 ovarian): 2.32 µM
TGI (OVCAR-4 ovarian): 34.7 µM
GI50 (OVCAR-5 ovarian): 0.385 µM
TGI (OVCAR-5 ovarian): 1.58 µM
GI50 (OVCAR-8 ovarian): 59.4 µM
TGI (OVCAR-8 ovarian): > 100 µM
GI50 (PC-3 prostate): > 89.8 µM
TGI (PC-3 prostate): > 100 µM
GI50 (RPMI-8226 leukemia): 26.3 µM
TGI (RPMI-8226 leukemia): > 100 µM
GI50 (RXF 393 renal): > 28.4 µM
TGI (RXF 393 renal): > 100 µM
GI50 (SF-268 CNS): > 100 µM
TGI (SF-268 CNS): > 100 µM
GI50 (SF-295 CNS): 4.91 µM
TGI (SF-295 CNS): > 100 µM
GI50 (SF-539 CNS): > 100 µM
TGI (SF-539 CNS): > 100 µM
GI50 (SK-MEL-2 melanoma): > 76.8 µM
TGI (SK-MEL-2 melanoma): > 100 µM
GI50 (SK-MEL-28 melanoma): > 100 µM
TGI (SK-MEL-28 melanoma): > 100 µM
GI50 (SK-MEL-5 melanoma): 72.1 µM
TGI (SK-MEL-5 melanoma): > 100 µM
GI50 (SK-OV-3 ovarian): 36.1 µM
TGI (SK-OV-3 ovarian): > 100 µM
GI50 (SN12C renal): > 100 µM
TGI (SN12C renal): > 100 µM
GI50 (SNB-19 CNS): > 100 µM
TGI (SNB-19 CNS): > 100 µM
GI50 (SNB-75 CNS): > 51.7 µM
TGI (SNB-75 CNS): > 100 µM
GI50 (SR leukemia): > 100 µM
TGI (SR leukemia): > 100 µM
GI50 (SW-620 colon): 22.8 µM
TGI (SW-620 colon): > 100 µM
GI50 (T-47D breast): 0.927 µM
TGI (T-47D breast): 5.5 µM
GI50 (TK-10 renal): 0.199 µM
TGI (TK-10 renal): 0.744 µM
GI50 (U251 CNS): 23.6 µM
TGI (U251 CNS): > 100 µM
GI50 (UACC-257 melanoma): 0.719 µM
TGI (UACC-257 melanoma): 2.42 µM
GI50 (UACC-62 melanoma): 0.923 µM
TGI (UACC-62 melanoma): 7.83 µM
GI50 (UO-31 renal): 69.3 µM
TGI (UO-31 renal): > 100 µM
